The record followed here is patent US20030054029A1, “IIB/IIIA ANTAGONISTS CO-ADMINISTERED WITH ASPIRIN” (priority 1997, published 2003).

In data set [1] the test system is occlusive thrombus in left circumflex coronary artery (LCCA). The data set is described as follows: Anesthetized canine model of coronary thrombosis (anodal current stimulation of the LCCA). The class given is in vivo, dog. Here is the method:
Sixty-six mongrel dogs of either sex weighing between 14 and 26 kg were anesthetized by intravenous administration of pentobarbital sodium solution (30 mg/kg). A supplemental dose of the anesthetic (65 to 130 mg) was administered as required. The dogs were endotracheally intubated and placed on a respirator (Biological Research Apparatus, Comerio-Varese, Italy) with the stroke volume adjusted to 20 ml/kg and a frequency of 12 breaths/minute. Peripheral arterial blood pressure was monitored with a pressure transducer (Micron Instruments, Simi Valley, Calif.) connected to a catheter placed in the right femoral artery. A catheter was inserted into the right femoral vein for withdrawing blood samples and another was inserted into the left jugular vein for administering intravenous fluids. A left thoracotomy was performed in the fifth intercostal space and the heart was suspended in a pericardial cradle. A 2 to 3-cm segment of the left circumflex coronary artery (LCCA) was isolated distal to the first diagonal branch. The small intervening coronary branches over the isolated segment were ligated. The artery was instrumented from proximal to distal with an ultrasonic flow probe, a stimulation electrode, and a Goldblatt clamp. The flow probe was connected to a Doppler flow meter (Crystal Biotech, Hopkinton, Mass.) in order to monitor the mean and the phasic LCCA blood flow velocities. The stimulation electrode and its placement in the LCCA and the methodology to induce an occlusive coronary thrombus are described in detail in Mickelson et al. Circulation, 1990; 81:617-627; Shebuski et al., Circulation, 1990; 82:169-177; and Tschopp et al., Coronary Artery Des., 1993; 4:809-817. Briefly, the needle tip of the electrode was inserted into the LCCA, ensuring its contact with the intraluminal surface of the vessel just under the Goldblatt clamp. The clamp was adjusted to reduce the peak reactive hyperemia following a 10-second period of total occlusion, without affecting the baseline mean LCCA blood flow velocity. Continuous recordings of blood pressure and LCCA blood flow velocity (mean and phasic) were obtained on a multichannel recorder (Gould Inc., Cleveland, Ohio).
Approximately 30 minutes after the preparation of the dogs, the study was continued by the administration of one of the treatments presented in Table 2.
The 0.6×SCa, 0.5×SCa and 0.4×SCa doses in Table 2 represent the reduced doses of the highest dose of SCa tested. Each dog was utilized only once. At 30 minutes, the stimulation electrode was then connected in series with a 12 K Ohms-112 K Ohms variable resistor to the positive terminal of a 9-V battery. The electrical circuit was completed by securing a needle electrode into a subcutaneous site and to the negative terminal of the battery. The anodal current delivered to the tip of the stimulation electrode was monitored and maintained at 250 μA. The number and the frequency of cyclic flow variations (CFV) that preceded the formation of an occlusive thrombus were recorded. CFV were observed as spontaneous shifts in mean and phasic LCCA blood flow velocity, with the sudden return of these variables to baseline. Proper positioning of the electrode in the LCCA was confirmed by visual inspection at the end of the experiment. Each experiment lasted for 180 minutes of anodal current unless the dog died after an occlusive thrombus was formed.

For data set [2], the system named is Dog PRP platelet aggregation. The experiment in a line: In-Vitro Platelet Aggregation in PRP (ADP-induced). Type of data set: cell-based. The settings on record: Canis lupus familiaris; ADP 50 um final concentration, dog platelet-rich plasma. Here is the method: Healthy male or female dogs were fasted for 8 hours prior to drawing blood; then 30 ml whole blood was collected using a butterfly needle and 30 cc plastic syringe with 3 ml of 0.129 M buffered sodium citrate (3.8%). The syringe was rotated carefully as blood was drawn to mix the citrate. Platelet-rich plasma (PRP) was prepared by centrifugation at 975×g for 3.17 minutes at room temperature allowing the centrifuge to coast to a stop without braking. The PRP was removed from the blood with a plastic pipette and placed in a plastic capped, 50 mL Corning conical sterile centrifuge tube which was held at room temperature. Platelet poor plasma (PPP) was prepared by centrifuging the remaining blood at 2000×g for 15 minutes at room temperature allowing the centrifuge to coast to a stop without braking. The PRP was adjusted with PPP to a count of 2-3×10^8 platelets per mL. 400 uL of the PRP preparation and 50 uL of the compounds solution to be tested or saline were preincubated for 1 minute at 37° C. in an aggregometer (BioData, Horsham, Pa.). 50 uL of adenosine 5′ diphosphate (ADP) (50 um final concentration) was added to the cuvettes and the aggregation was monitored for 1 minute. All compounds are tested in duplicate. Results are calculated as follows: Percent of control=[(maximal OD minus initial OD of compound) divided by (maximal OD minus initial OD of control saline)]×100. […]

The subject of data set [3] is collagen-induced platelet aggregation. The data set is described as follows: Ex vivo collagen-induced platelet aggregation in PRP of treated dogs. More on the design: species or system dog. The settings on record: mean±SEM. Here is the method: Peripheral venous blood was collected into citrated Vacutainer tubes (containing 0.3 ml of 3.8% sodium citrate solution) and platelet-rich plasma (PRP) was obtained by centrifugation (model Technospin R, Sorvall Instruments, DuPont, Wilmington, Del.) the blood at 266×g for 6 minutes at 24° C. Platelet-poor plasma (PPP) was obtained by further centrifugation at 2000×g for 10 minutes at 24° C. Samples were assayed on an aggregometer (model PAP-4, Bio/Data Corporation, Hatboro, Pa.) with PPP as the blank. The aggregations were performed by adding 50 μl of collagen ([…] final concentration) to 450 μl of PRP and measuring aggregation for 3 minutes. Blood samples used in platelet aggregation were collected at the following time periods: before treatment administration (baseline), immediately before anodal stimulation (at 30 minutes), at 60 minutes, then at 1-hour intervals to the end of experimentation. The blood samples at 60, 120 and 180 minutes were averaged (since the three blood samples yielded similar data) to obtain the steady-state platelet inhibition value for all comparisons except for saline and heparin (since no 120-minute sample was taken, 60 and 180 minute samples were used). Results are expressed as percent inhibition and represent steady-state conditions.

A short description of data set [4]: Bioassay for SCa plasma levels. Type of data set: in vivo. The settings on record: steady state, dog plasma, mean ± SEM. Here is the method:
SCa plasma levels were determined from the blood samples used for platelet aggregation. Plasma levels of SCa were measured using a modification of a bioassay method previously described in Salyers et al., Throm. Res., 1994, 75:409-417. The bioassay used plasma from treated dogs as the source of inhibitor to be tested in vitro against normal (naive) platelets from donor dogs. Briefly, PRP from non-treated dogs was added to wells containing plasma samples from treated dogs in a 96 well microtiter plate. ADP (20 μM) was added to the platelet suspension in each well to induce aggregation. Optical density at 405 nanometers was measured on all wells simultaneously in a platereader (Thermomax microplate reader, Molecular Devices, Menlo Park, Calif.). The results were quantified by comparison to a standard inhibition curve prepared in plasma using known amounts of SCa.

[5] abbreviates: no SCa, ASA 2.8 mg/kg iv bolus, heparin 200 units/kg bolus then 1000 units/hour.
Setting [6] is: no SCa, ASA 2.8 mg/kg iv bolus, heparin 200 units/kg bolus then 1000 units/hour, mean±SEM, n=6.
[7] abbreviates: no SCa, ASA 2.8 mg/kg iv bolus, heparin 200 units/kg bolus then 1000 units/hourly, mean ± SEM, n=6/group.
Setting [8] is: no SCa, ASA 2.8 mg/kg iv bolus, heparin 200 units/kg bolus then 1000 units/hourly, n=6/group.
[9] abbreviates: 0.6 × SCa (0.52//0.23 μg/kg/min iv).
Where [10] appears, read: 1 × SCa (0.87//0.39 μg/kg/min iv).
[11] abbreviates: 0.6 × SCa (0.52//0.23 μg/kg/min iv), mean±SEM, n=6.

Broadly, the IC50 is the concentration that inhibits the measured activity by half. A higher IC50 goes with a need for much substance.

“And” between values parts separate entries of the source, which are not always exact repeats. Identical values can stand only once.

With `CC(=O)Oc1ccccc1C(=O)O` [ASA, acetylsalicyclic acid, reference compound], the “occurrence of thrombosis (occlusive thrombus) in dogs” value in data set [1] (no SCa, ASA 2.8 mg/kg iv bolus, 180 minutes of anodal current, n=6) is “did occur before the completion of the 180 minutes of current in all of the dogs”. Also, in data set [1] (setting [5]), the “effectiveness in the thrombosis model” value is listed as “not effective”. The “time to zero flow” value in data set [1] (setting [6]) came to 64 ± 7 min. Further, the “Mean CFV/Minute (×100)” value in data set [1] (setting [7]) is reported as 6 ± 2 CFV/Minute (×100). For the same compound, in data set [1] (setting [8]), the “Number of Dogs with CFV” value is given as 6/6.

Compound `C#C[C@H](CC(=O)OCC)NC(=O)CCC(=O)Nc1ccc(C(=N)N)cc1` [Example 1, Ethyl 3S-[[4-[[4-(aminoiminomethyl)phenyl]-amino]-1,4-dioxobutyl]amino]-4-pentynoate] yielded an IC50 in data set [2] of 4600 nM. That is a single-digit micromolar value.

Consider `C#C[C@H](CC(=O)O)NC(=O)CCC(=O)Nc1ccc(C(=N)N)cc1` [Example 2], for which the figures for the “steady-state inhibition of platelet aggregation (Percent Inhibition)” value in data set [3] (0.5 × SCa (0.425//0.20 μg/kg/min iv) alone or with ASA 2.8 mg/kg bolus and/or heparin 200 units/kg + 1000 units/hour), in data set [3] (setting [9]) and in data set [3] (setting [10]) were 70±4%, 83±3% and 92±5%, respectively. The “dogs with occlusive thrombus / LCCA thrombosis” value in data set [1] (0.5 × SCa (0.425//0.20 μg/kg/min iv) alone or with ASA and/or heparin, 180 minutes of anodal current, n=6/group) is 4 of 6. Moreover, the “Mean CFV/Minute (×100)” value in data set [1] (0.5 × SCa (0.425//0.20 μg/kg/min iv) alone or with ASA and/or heparin, mean ± SEM, n=6/group) was 5 ± 1 CFV/Minute (×100); in data set [1] (setting [11]) it was 3 ± 1 CFV/Minute (×100); in data set [1] (1 × SCa (0.87//0.39 μg/kg/min iv), during anodal stimulation of the LCCA, mean ± SEM, n=6), 0.7 ± 0.7 CFV/Minute (×100). Also, the “Number of Dogs with CFV” value was 6/6 in data set [1] (0.5 × SCa (0.425//0.20 μg/kg/min iv) alone or with ASA and/or heparin, n=6/group); 4/6 in data set [1] (0.6 × SCa (0.52//0.23 μg/kg/min iv), n=6); 1 of 6 and 1/6 in data set [1] (1 × SCa (0.87//0.39 μg/kg/min iv), n=6, listed as SCa). Moreover, the “time to zero flow” value in data set [1] (0.5 × SCa (0.425//0.20 μg/kg/min iv), mean±SEM, n=6) is 130 ± 22 min; in data set [1] (setting [11]), 158 ± 15 min; in data set [1] (1 × SCa (0.87//0.39 μg/kg/min iv, loading 15 min // maintenance), 180 min = end of protocol with no occlusion, mean±SEM, n=6), 180 ± 0 min. Moreover, the “occurrence of thrombosis (occlusive thrombus) in dogs” value in data set [1] (1 × SCa (0.87//0.39 μg/kg/min iv), 180 minutes of anodal current, n=6) was “did not occur in any of the dogs”. For the same compound, the IC50 in data set [2] came to 70 nM. Also, the “Plasma Level of SCa” value in data set [4] (0.5 × SCa (0.425//0.20 μg/kg/min iv)) came out at 35 ± 8 ng/mL; in data set [4] (setting [9]), 48 ± 7 ng/mL; in data set [4] (setting [10]) it was 57 ± 4 ng/mL.

Turning to Heparin [reference compound], in data set [3] (setting [5]), the “steady-state inhibition of platelet aggregation” value is 13±2%. The “effectiveness in the thrombosis model” value in data set [1] (setting [5]) is “not effective”. Further, the “time to zero flow” value in data set [1] (setting [6]) was determined as 114 ± 16 min. The “Mean CFV/Minute (×100)” value in data set [1] (setting [7]) is recorded as 5 ± 1 CFV/Minute (×100). Further, the “Number of Dogs with CFV” value in data set [1] (setting [8]) is on record as 6/6.
